In ChEMBL document CHEMBL4831545, “Hormesis Effect of Berberine against Klebsiella pneumoniae Is Mediated by Up-Regulation of the Efflux Pump KmrA” (J Nat Prod, 2021):

Key:
[1] = tested on: Klebsiella pneumoniae; experiment: Hormesis activity against overnight compound-treated Klebsiella pneumoniae deficient in KmrA gene expression assessed as increase in antibiotic MIC by measuring hygromycinMIC at 3 ug/ml incubated for 12 hrs by OD600 based analysis (reference value: 12.5 ug/ml); type: ADME, organism-based; settings: in vivo, dose 3 µg/ml
[2] = tested on: Klebsiella pneumoniae; experiment: Hormesis activity against overnight compound-treated Klebsiella pneumoniae deficient in KmrA gene expression assessed as increase in antibiotic MIC by measuring ciprofloxacin MIC at 3 ug/ml incubated for 12 hrs by OD600 based analysis (reference value: 0.0390625 ug/ml); type: ADME, organism-based; settings: in vivo, dose 3 µg/ml
[3] = tested on: Klebsiella pneumoniae; experiment: Hormesis activity against Klebsiella pneumoniae deficient in KmrA gene expression assessed as increase in antibiotic MIC by measuring atreonamMIC at 3 ug/ml incubated for 12 hrs by OD600 based analysis (reference value: 1.5625 ug/ml); type: ADME, organism-based; settings: in vivo, dose 3 µg/ml
[4] = tested on: Klebsiella pneumoniae; experiment: Hormesis activity against Klebsiella pneumoniae assessed as increase in antibiotic MIC by measuring meropenem MIC at 3 ug/ml incubated for 12 hrs by OD600 based analysis (reference value: 0.39625 ug/ml); type: ADME, organism-based; settings: in vivo, dose 3 µg/ml
[5] = tested on: Enterobacter cloacae; experiment: Hormesis activity against overnight compound-treated Enterobacter cloacae assessed as increase in antibiotic MIC by measuring tetracycline MIC at 3 ug/ml incubated for 12 hrs by OD600 based analysis (reference value: 8 ug/ml); type: ADME, organism-based; settings: in vivo, dose 3 µg/ml
[6] = tested on: Klebsiella pneumoniae; experiment: Hormesis activity against overnight compound-treated Klebsiella pneumoniae deficient in KmrA gene expression assessed as increase in antibiotic MIC by measuring rifampicin MIC at 3 ug/ml incubated for 12 hrs by OD600 based analysis (reference value: 25 ug/ml); type: ADME, organism-based; settings: in vivo, dose 3 µg/ml
[7] = tested on: Klebsiella pneumoniae; experiment: Hormesis activity against Klebsiella pneumonia assessed as promotion of bacterial growth by measuring prolonged logarithmic growth phase at 3 to 6 ug/ml measured for 24 hrs in presence of 1 ug/ml tetracycline by OD600 based analysis; type: organism-based; settings: in vivo, dose 3-6 µg/ml
[8] = tested on: Enterobacter cloacae; experiment: Hormesis activity against Enterobacter cloacae assessed as promotion of bacterial growth up to 25 ug/ml measured for 24 hrs in presence of 8 ug/ml tetracycline by OD600 based analysis; type: organism-based; settings: in vivo, dose <=25 µg/ml
[9] = tested on: Acinetobacter baumannii; experiment: Hormesis activity against overnight-compound treated Acinetobacter baumannii assessed as increase in antibiotic MIC by measuring tetracycline MIC at 3 ug/ml incubated for 12 hrs by OD600 based analysis (reference value: 240 ug/ml); type: ADME, organism-based; settings: in vivo, dose 3 µg/ml
[10] = tested on: Klebsiella pneumoniae; experiment: Hormesis activity against overnight compound-treated Klebsiella pneumoniae assessed as increase in antibiotic MIC by measuring atreonamMIC at 3 ug/ml incubated for 12 hrs by OD600 based analysis (reference value: 1.5625 ug/ml); type: ADME, organism-based; settings: in vivo, dose 3 µg/ml
[11] = tested on: Enterobacter cloacae; experiment: Hormesis activity against Enterobacter cloacae assessed as promotion of bacterial growth up to 25 ug/ml measured for 24 hrs in presence of efflux pump inhibitor, CCCP and 8 ug/ml tetracycline by OD600 based analysis; type: ADME, organism-based; settings: in vivo, dose <=25 µg/ml
[12] = tested on: Acinetobacter baumannii; experiment: Hormesis activity against overnight-compound treated Acinetobacter baumannii assessed as increase in antibiotic MIC by measuring azithromycin MIC at 3 ug/ml incubated for 12 hrs by OD600 based analysis (reference value: 200 ug/ml); type: ADME, organism-based; settings: in vivo, dose 3 µg/ml
[13] = Upregulation of efflux pump regulator promoter activity in Klebsiella pneumoniae assessed as increase in beta-galactosidase activity at 50 ug/ml by LacZ based OD600 analysis relative to control; type: ADME; settings: dose 50 µg/ml
[14] = tested on: Klebsiella pneumoniae; experiment: Hormesis activity against Klebsiella pneumoniae deficient in KmrA gene expression assessed as increase in antibiotic MIC by measuring ampicillin MIC at 3 ug/ml incubated for 12 hrs by OD600 based analysis (reference value: 12.5 ug/ml); type: ADME, organism-based; settings: in vivo, dose 3 µg/ml
[15] = tested on: Klebsiella pneumoniae; experiment: Hormesis activity against Klebsiella pneumoniae assessed as increase in antibiotic MIC by measuring streptomycin MIC at 3 ug/ml incubated for 12 hrs by OD600 based analysis (reference value: 0.78125 ug/ml); type: ADME, organism-based; settings: in vivo, dose 3 µg/ml
[16] = tested on: Acinetobacter baumannii; experiment: Hormesis activity against Acinetobacter baumannii assessed as increase in antibiotic MIC by measuring azithromycin MIC at 3 ug/ml incubated for 12 hrs by OD600 based analysis (reference value: 200 ug/ml); type: ADME, organism-based; settings: in vivo, dose 3 µg/ml
[17] = tested on: Acinetobacter baumannii; experiment: Hormesis activity against Acinetobacter baumannii assessed as promotion of bacterial growth at 3 to 50 ug/ml measured for 24 hrs in presence of efflux pump inhibitor, CCCP and 80 to 120 ug/ml tetracycline by OD600 based analysis; type: ADME, organism-based; settings: in vivo, dose 3-50 µg/ml
[18] = tested on: Acinetobacter baumannii; experiment: Hormesis activity against Acinetobacter baumannii assessed as increase in antibiotic MIC by measuring ciprofloxacin MIC at 3 ug/ml incubated for 12 hrs by OD600 based analysis (reference value: 0.3125 ug/ml); type: ADME, organism-based; settings: in vivo, dose 3 µg/ml
[19] = tested on: Enterobacter cloacae; experiment: Hormesis activity against overnight compound-treated Enterobacter cloacae assessed as increase in antibiotic MIC by measuring meropenem MIC at 3 ug/ml incubated for 12 hrs by OD600 based analysis (reference value: 0.1953 ug/ml); type: ADME, organism-based; settings: in vivo, dose 3 µg/ml
[20] = tested on: Klebsiella pneumoniae; experiment: Hormesis activity against Klebsiella pneumoniae deficient in KmrA gene expression assessed as increase in antibiotic MIC by measuring chloramphenicol MIC at 3 ug/ml incubated for 12 hrs by OD600 based analysis (reference value: 6.25 ug/ml); type: ADME, organism-based; settings: in vivo, dose 3 µg/ml
[21] = tested on: Acinetobacter baumannii; experiment: Hormesis activity against Acinetobacter baumannii assessed as increase in antibiotic MIC by measuring ampicillin MIC at 3 ug/ml incubated for 12 hrs by OD600 based analysis (reference value: 100 ug/ml); type: ADME, organism-based; settings: in vivo, dose 3 µg/ml
[22] = tested on: Enterobacter cloacae; experiment: Hormesis activity against Enterobacter cloacae assessed as increase in antibiotic MIC by measuring ampicillin MIC at 3 ug/ml incubated for 12 hrs by OD600 based analysis (reference value: 25 ug/ml); type: ADME, organism-based; settings: in vivo, dose 3 µg/ml
[23] = tested on: Klebsiella pneumoniae; experiment: Hormesis activity against Klebsiella pneumoniae deficient in KmrA gene expression assessed as increase in antibiotic MIC by measuring streptomycin MIC at 3 ug/ml incubated for 12 hrs by OD600 based analysis (reference value: 0.78125 ug/ml); type: ADME, organism-based; settings: in vivo, dose 3 µg/ml
[24] = tested on: Enterobacter cloacae; experiment: Hormesis activity against overnight compound-treated Enterobacter cloacae assessed as increase in antibiotic MIC by measuring rifampicin MIC at 3 ug/ml incubated for 12 hrs by OD600 based analysis (reference value: 25 ug/ml); type: ADME, organism-based; settings: in vivo, dose 3 µg/ml
[25] = tested on: Enterobacter cloacae; experiment: Hormesis activity against Enterobacter cloacae assessed as increase in antibiotic MIC by measuring chloramphenicol MIC at 3 ug/ml incubated for 12 hrs by OD600 based analysis (reference value: 3.125 ug/ml); type: ADME, organism-based; settings: in vivo, dose 3 µg/ml
[26] = tested on: Acinetobacter baumannii; experiment: Hormesis activity against Acinetobacter baumannii assessed as increase in antibiotic MIC by measuring streptomycin MIC at 3 ug/ml incubated for 12 hrs by OD600 based analysis (reference value: 400 ug/ml); type: ADME, organism-based; settings: in vivo, dose 3 µg/ml
[27] = tested on: Klebsiella pneumoniae; experiment: Hormesis activity against overnight compound-treated Klebsiella pneumoniae assessed as increase in antibiotic MIC by measuring meropenem MIC at 3 ug/ml incubated for 12 hrs by OD600 based analysis (reference value: 0.39625 ug/ml); type: ADME, organism-based; settings: in vivo, dose 3 µg/ml
[28] = tested on: Klebsiella pneumoniae; experiment: Hormesis activity against Klebsiella pneumonia assessed as promotion of delayed bacterial growth at 25 to 50 ug/ml measured for 24 hrs in presence of 1 ug/ml tetracycline by OD600 based analysis; type: organism-based; settings: in vivo, dose 25-50 µg/ml

Work on `COc1ccc2cc3[n+](cc2c1OC)CCc1cc2c(cc1-3)OCO2` [BERBERINE] yielded an MIC [1] of 12.5 µg/mL, an MIC [2] of 0.07812 µg/mL and an MIC [3] of 1.5625 µg/mL. The MIC [4] was 0.3962 µg/mL, the MIC [5] was 16 µg/mL and the MIC [6] was 25 µg/mL. The Activity [7] was “Toxic”, the Activity [8] was “Toxic” and the MIC [9] was 360 µg/mL. For the same compound, the MIC [10] was 1.5625 µg/mL, the Activity [11] was “Non-Toxic” and the MIC [12] was 400 µg/mL. The “fold change (FC)” value [13] was 2, the MIC [14] was 12.5 µg/mL and the MIC [15] was 1.5625 µg/mL. For the same compound, the MIC [16] was 200 µg/mL, the Activity [17] was “Non-Toxic” and the MIC [18] was 0.3125 µg/mL. For the same compound, the MIC [19] was 0.1953 µg/mL, the MIC [20] was 6.25 µg/mL and the MIC [21] was 200 µg/mL. For the same compound, the MIC [22] was 25 µg/mL, the MIC [23] was 0.7812 µg/mL and the MIC [24] was 50 µg/mL. It also gave an MIC [25] of 3.125 µg/mL, an MIC [26] of 400 µg/mL and an MIC [27] of 0.3962 µg/mL. For the same compound, the Activity [28] was “Non-Toxic”.
